{"source": "patent US20050209140A1", "about": "“Methods of controlling axonal growth” (MASSACHUSETTS INSTITUTE OF TECHNOLOGY, priority 1996, published 2005)", "key": {"[1]": {"system": "retinal ganglion cells (RGCs)", "test": "Dissociated retinal cell culture: survival and neurite outgrowth of prelabeled RGCs", "assay_type": "cell-based, mouse", "procedure": "(§1) Primary cultures of dissociated retinal cells were prepared from P2 wild-type or transgenic animals. RGCs were prelabeled by injecting DiI solution (25% in Dimethyl Formamide) into the tectal region bilaterally in P0 pups. Cells were plated in 24-cell wells treated with poly-L-lysine ([…], 4° C. overnight) and coated with Human Merosin ([…], r.t., 2 hr)(Meyer-Franke, A. and Barres, B. A. Neuron 15, 805-819 (1995)). Cultures were maintained for 2 to 3 days in NeuralBasal medium supplemented with B27. Trypan blue staining was used to examine the viability of retinal ganglion cells (RGCs). Retinotectal cocultures prepared from wild-type P2 mice were described previously and ZVAD (Z-Val-Ala-Asp-CH2F, Enzyme Systems Products) was added to the culture medium at the time of plating. Cell death was detected by staining with the fluorescent dye, SYTOX green fluorescent dead cell stain (Molecular Probes). Cultures were visualized under an inverted Nikon microscope equipped with Nomarski and epifluorescence illumination.\nWhether these two activities of neurons, survival and axonal growth, can be separated in vitro was next examined. […]"}, "retinal explants (RGCs)": {"system": "retinal explants (RGCs)", "test": "Retinotectal explant coculture: cell death in retinal explants and retinal axon growth into tectal slices", "assay_type": "cell-based, mouse", "procedure": "Brains were dissected into ice-cold Gey's balanced salt solution enriched with glucose. […] Retinal explants were abutted against tectal slices. Tissues were placed on the microporous membrane of Millicell wells (Millipore) and maintained in NeuralBasal medium supplemented with B27 (GIBCO Inc., New York) at 37° C. for five days. To exclude the possibility that tectal tissues from mutant mice may affect axonal growth of RGCs, a series of parallel experiments were perforemd in which one retinal explant of each mouse was confronted with the tectum from the same mouse, while the second retinal explant was placed against the tectum from another mouse. With this arrangement, retinal explants from each animal had the possibility of being cocultured with the tectum from a wild-type, heterozygous, or homozygous animal. The number of regenerating axons was sampled by applying the lipophilic carbocyanine fluorescent label, DiI, in crystals to fixed retinal explants. The cocultures were stored in fixative for two-four weeks to allow diffusion of the dye, and labeled retinal axons were viewed with a fluorescence microscope (Nikon).\nas §1\nThe effect of the ICE inhibitor was also tested in the explant coculture system with tissue prepared from wild-type P2 mice."}}, "note": "“Also recorded” adds a separate entry of the source. Where a SMILES comes first, the peptide text is derived from it."}
{"smiles": "CC(C)[C@H](NC(=O)OCc1ccccc1)C(=O)N[C@@H](C)C(=O)N[C@@H](CC(=O)O)C(=O)CF", "note": "[ZVAD, Z-Val-Ala-Asp-CH2F] (HELM PEPTIDE1{[O=C(OCc1ccccc1)[*:2]].V.A.D.[FC[*:1]]}$$$$V2.0)", "values": [{"measurement": "neurite outgrowth of labeled RGCs in dissociated culture", "setting": "[1]; ZVAD-treated RGCs from wild-type P2 animals, no neurotrophic factors added, n=36", "value": "round and devoid of neurites"}, {"measurement": "RGC death in dissociated retinal cell culture", "setting": "[1]; retinae of P2 pups, ZVAD at a concentration of 10 mM or above, after 2 days in culture", "value": "effectively reduced RGC death"}, {"measurement": "ability to promote axonal growth", "setting": "retinal explants (RGCs); overall conclusion of the ZVAD experiments", "value": "not sufficient to promote axonal growth; also recorded: not sufficient to support axonal growth"}, {"measurement": "protection of cells from death in retinal explants compared with bcl-2 transgenic mouse", "setting": "retinal explants (RGCs); wild-type P2 mice", "value": "protected cells from death almost as well as bcl-2"}, {"measurement": "number of growing retinal axons with increasing concentration of ZVAD", "setting": "retinal explants (RGCs); wild-type P2 mice, ZVAD 50, 100, 200 µM", "value": "did not change significantly"}, {"measurement": "extent of cell death in retinal explants", "setting": "retinal explants (RGCs); wild-type P2 mice, ZVAD 50, 100, 200 µM, SYTOX green dead cell stain", "value": "reduced the extent of cell death; also recorded: number of dying cells in retinal explants decreased"}, {"measurement": "number of axons that invaded tectal slices, ZVAD-treated wild-type cultures versus bcl-2 transgenic mice", "setting": "retinal explants (RGCs); wild-type P2 mice, fold less than bcl-2 transgenic", "value": 10, "unit": "fold"}]}
